The values that follow are results of earlier work, collected in patent US5169665A, “Tris-hydroxymethyl alkane esters as low calorie fat mimetics” (Nabisco, Inc., priority 1990, dated 1992).

One data set relates to pancreatic lipase. The settings on record: quoted from Minich, col. 4.
The conditions of data set [1]: rats fed ad libitum, versus control animals on a normal diet.

With `CCCCCCCC(=O)OCC(COC(=O)CCCCCCC)(COC(=O)CCCCCCC)COC(=O)CCCCCCC` [pentaerythritol tetracaprylate], in the data set on pancreatic lipase, the “hydrolysis by pancreatic lipase” value is reported as “not attacked, hydrolyzed, by the enzyme pancreatic lipase”. For the same molecule, in data set [1], the food consumption result is on record as “consumed more than control animals on a normal diet”.
